The text below walks through data of patent US9868773B2, “Peptide for treatment of type 2 diabetes mellitus and its complications” (DAPHOT ENTERPRISES LIMITED, priority 2014, dated 2018).

“Also recorded” adds a separate entry of the source. Marks after values point to notes of the source that are not given here.

In experiment [1] the test system is chemical experimental diabetes induced by a single injection of Streptozocin (STZ) and nicotinamide to male rats. In words: Determination of glucose in peripheral blood of rats with STZ/nicotinamide-induced experimental diabetes. It is filed as in vivo, rat. The note with it: fasted STZ/nicotinamide rats; daily for 80 days; Byetta and exenatide 4.5 ppb, D-peptide 6.0 ppb subcutaneously, Metformin 85.7 ppm intragastrically; vs control group. On the procedure:
(§1) In accordance with the experiment schedule, animals underwent induction of experimental diabetes mellitus using single injection of Streptozotocin (STZ) abdominally in the dose of 65 ppm previously diluted in citrate buffer (pH=6.5) on the day 0. All animals were injected abdominally with nicotinomide in the dose of 230 ppm (5% solution) 2 hours before it.
Glucose level measurement in peripheral blood of rats was conducted using the glucose meter OneTouch® and dipsticks OneTouch® by the glucose oxidase test. Rats were deprived of feed, but not water for a night before glucose level measurement. The measurement process was as follows: an animal with a required mark was removed from the cage, its tail was treated with bactericidal agent, a vein was punctured using a syringe needle, and the glucose meter with a dipstick was brought in place when a blood drop was effused. Obtained data was entered into the initial card.

The test system is the same in experiment [2]. In words: Determination of glycosylated hemoglobin (HbA1c) in blood of diabetic rats. It is filed as in vivo, rat. The note with it: for Glycosylated hemoglobin, %: M ± m, 81st day of daily injection, Byetta and exenatide 4.5 ppb, D-peptide 6.0 ppb s.c., Metformin 85.7 ppm i.g., intact 4.2, control 15.6; for reduction of HbA1c concentration, therapy effect in intergroup comparison: vs control group, after 80-day therapy. The procedure:
as §1
A sample of venous blood was taken to determine the glycosylated hemoglobin level of animals on the day of euthanasia. The following organs were also taken for pathomorphological study: sciatic nerve, part of mesentery artery, part of retina artery, part of gastrocnemius muscle and pancreatic gland.
Determination of glycosylated hemoglobin in venous blood was conducted using the kit of reagents “Diabetes Test, HbA1c” (“Phosphosorb” LLC, Russia) by the method of affinity chromatography of glycosylated and non-glycosylated hemoglobin fractions in rat blood hemolysate.
Blood samples for determination of glycosylated hemoglobin in hemolysate of animal red blood cells were taken from the tail vein of experimental animals on the 81st day of daily injection of test products.

Experiment [3] deals with rats with diabetic neuropathy. In words: Assessment of tactile allodynia (von Frey hairs) on rats with diabetic neuropathy. It is filed as in vivo, rat. The settings on record: for effect on tactile allodynia manifestation in diabetic neuropathy: 60th-80th day of injection, vs control group; for mean value of paw withdrawal threshold, 60th day of products injection: Byetta and exenatide 4.5 ppb, D-peptide 6.0 ppb s.c., Metformin 85.7 ppm i.g. daily, control 2.77, intact 27.74; for mean value of paw withdrawal threshold, 70th day of products injection / mean value of paw withdrawal threshold, 80th day of products injection: same doses; for mean value of paw withdrawal threshold, 70th day of products injection: control 3.10, intact 26.94; for mean value of paw withdrawal threshold, 80th day of products injection: control 3.46, intact 27.74. The procedure: as §1
A rat was put into a plastic cage with a grating floor made of metal wire and left in this cage for 5 minutes to extinguish orientation response.
Threshold of each rat was initially determined on the left paw, and then on the right paw. A hair end touched the middle of the plantar surface on the paw with the force required for hair bending, and it was left in this position for 6-8 seconds. Positive response was recorded if the animal withdrew its paw abruptly during touching, or removal of a hair was followed by sharp paw bending.
Testing was started from application of a hair corresponding to the force of 3.630 g. Then stimuli (hairs) were used in the increasing and decreasing sequence. The hair with the least coarseness was used in case of positive response, while the hair with the largest coarseness was used in case of negative response. 4 more hairs were used according to the same principle after initial determination of sensitivity threshold.
Psychophysiological mean effective threshold of tactile responsiveness was calculated by the method described by Dixon.

A further experiment concerns sciatic nerve tissue. In words: Condition assessment of sciatic nerve tissue of diabetic rats (histology, morphometry). It is filed as in vivo, rat. The note with it: for pathomorphological condition of sciatic nerve tissue: histology after 80-day injection; for Nerve stem thickness, μm / Endoneurium connective tissue area, μm^2: sciatic nerve after 80-day injection; for Nerve stem thickness, μm: intact 340.5, control 203.3; for Endoneurium connective tissue area, μm^2: intact 2,596.3, control 3,962.5. From the text:
(§2) Nuclei were counterstained with hemalum.
(§3) 4.8. and image editor PhotoM 1.21.

The subject of the next experiment is gastrocnemius muscle. In words: Condition assessment of muscle tissue (gastrocnemius muscle) of diabetic rats. It is filed as in vivo, rat. The settings on record: for Cross section area of fibers, μm^2: gastrocnemius muscle, M ± m, after 80-day injection, intact 1,450, control 551.1; for pathomorphological condition of gastrocnemius muscle tissue: histology after 80-day injection.
Source text: as §2, §3

Experiment [4] relates to pancreatic gland insular apparatus. In words: Pancreatic gland insular apparatus of diabetic rats (islet area morphometry). It is filed as in vivo, rat. The note with it: after 80-day injection; intact 0.066, control 0.012. On the procedure: as §2, §3
1. pancreatic gland insular apparatus where measurement of islets area was performed;

Experiment [5] concerns mesenteric artery intima of rats. The note with it: after 80-day injection; vs control group (FIG. 3).
Source text: as §2, §3

Experiment [6] has as its system rats with alcohol neuropathy. The settings on record: D-peptide 10 ppb, 100th day of daily injection; vs control group, p<0.05; 30% alcohol forced drinking.
Method: Tactile allodynia was assessed prior to modeling of alcohol neuropathy on the 1st day of product injection, and on the 50th and 100th day of daily injection. Data are given as a mean threshold value of paw withdrawal (g) (M±m).
The allodynia test was performed on the 60th, 70th and 80th days of injection of medicinal products during experiment. In case of alcohol neuropathy, the tactile responsiveness test was performed on the 1st, 50th and 100th day of injection of medicinal products.
Assessment of tactile allodynia was performed in the same way as in the example 7.

On to `CN(C)C(=N)N=C(N)N` [Metformin], for which, in experiment [1], the “antihyperglycemic effect (glucose level in peripheral blood)” value is “showed antihyperglycemic properties starting from the 20th day of therapy”. Besides, in experiment [2], the “Glycosylated hemoglobin, %” value is listed as 5.7 ± 0.25 % and the “reduction of HbA1c concentration, therapy effect in intergroup comparison” value is listed as “maximum therapy effect”. Besides, the “effect on tactile allodynia manifestation in diabetic neuropathy” value in experiment [3] is recorded as “decreased allodynia manifestation intensity slightly”. Further, in experiment [3] (M ± m), the “mean value of paw withdrawal threshold, 60th day of products injection” value is 4.94 ± 0.90 g; the “mean value of paw withdrawal threshold, 70th day of products injection” value is 4.98 ± 0.87 g; the “mean value of paw withdrawal threshold, 80th day of products injection” value came to 4.28 ± 0.45 g. Moreover, the “mean value of paw withdrawal threshold, Baseline” value in experiment [3] (M ± m, baseline, prior to injection of test products) is given as 28.82 ± 0.00 g. In addition, in the experiment on sciatic nerve tissue, the “pathomorphological condition of sciatic nerve tissue” value is “did not have a therapeutic effect on nerve tissue; also recorded: nerve stem edema and excess increase of its thickness”; the “Nerve stem thickness, μm” value was found to be 382 ± 23.4 μm; the “Endoneurium connective tissue area, μm^2” value is 2,826.3 ± 298.9* μm^2. Further, in the experiment on gastrocnemius muscle, the “Cross section area of fibers, μm^2” value is 1,286 ± 157* μm^2; the “pathomorphological condition of gastrocnemius muscle tissue” value is “Minimum focal inflammatory infiltration of fibers and interstitial tissue”. The molecule further yielded an Area of pancreatic gland islets, mm² in experiment [4] of 0.034 ± 0.004 mm².

With “14-glycine-exendin-4 (Heloderma suspectum)-(1-39)-peptidyl-octa-D-arginyl-glycine [D-peptide]”, the “antihyperglycemic effect (glucose level in peripheral blood)” value in experiment [1] is on record as “had antihyperglycemic effect during therapy with duration of 80 days starting from the 40th day of injection”. Besides, in experiment [2], the “Glycosylated hemoglobin, %” value is 5.5 ± 0.53 % and the “reduction of HbA1c concentration, therapy effect in intergroup comparison” value is given as “maximum therapy effect”. The “effect on tactile allodynia manifestation in diabetic neuropathy” value in experiment [3] is “decreased tactile allodynia manifestations significantly”. In addition, in experiment [3] (M ± m), the “mean value of paw withdrawal threshold, 60th day of products injection” value came out at 16.15 ± 4.18 g; the “mean value of paw withdrawal threshold, 70th day of products injection” value amounted to 13.91 ± 3.59 g; the “mean value of paw withdrawal threshold, 80th day of products injection” value turned out to be 15.05 ± 3.67 g. In experiment [5], the “mesenteric artery intima thickness, effect” value is listed as “Maximum effect”. Moreover, in the experiment on sciatic nerve tissue, the “pathomorphological condition of sciatic nerve tissue” value is given as “had a positive therapeutic effect”; the “Nerve stem thickness, μm” value was found to be 303.6 ± 20.3 μm; the “Endoneurium connective tissue area, μm^2” value is 1,956.1 ± 273.4** μm^2. In the experiment with gastrocnemius muscle, the “Cross section area of fibers, μm^2” value is 1,472 ± 282* μm^2 and the “pathomorphological condition of gastrocnemius muscle tissue” value was “had apparent therapeutic action on muscle tissue”. Moreover, the “effect on tactile allodynia in alcohol neuropathy” value in experiment [6] is listed as “decrease in tactile allodynia intensity”.
